According to article PMC11602988 (The Journal of Biological Chemistry, 2024):
Positions count from the first letter of the chain named. Read-outs that look alike come from different tables or passages of the source.

What was measured:
[1] = biological target: T1, OCT1 Phe244Ala variant (Homo sapiens, UniProt O15245, F244A); assay: Uptake screening (transport ratio over empty vector), HEK293 cells overexpressing OCT1 Phe244Ala variant; assay type: cell-based; parameters: expressed in transfected cells;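 note: stably transfected HEK293 cells, intracellular substrate quantified by HPLC-tandem mass spectrometry in cell lysates, uptake in HBSS+ buffer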
T1 sequence (O15245 1-554 F244A): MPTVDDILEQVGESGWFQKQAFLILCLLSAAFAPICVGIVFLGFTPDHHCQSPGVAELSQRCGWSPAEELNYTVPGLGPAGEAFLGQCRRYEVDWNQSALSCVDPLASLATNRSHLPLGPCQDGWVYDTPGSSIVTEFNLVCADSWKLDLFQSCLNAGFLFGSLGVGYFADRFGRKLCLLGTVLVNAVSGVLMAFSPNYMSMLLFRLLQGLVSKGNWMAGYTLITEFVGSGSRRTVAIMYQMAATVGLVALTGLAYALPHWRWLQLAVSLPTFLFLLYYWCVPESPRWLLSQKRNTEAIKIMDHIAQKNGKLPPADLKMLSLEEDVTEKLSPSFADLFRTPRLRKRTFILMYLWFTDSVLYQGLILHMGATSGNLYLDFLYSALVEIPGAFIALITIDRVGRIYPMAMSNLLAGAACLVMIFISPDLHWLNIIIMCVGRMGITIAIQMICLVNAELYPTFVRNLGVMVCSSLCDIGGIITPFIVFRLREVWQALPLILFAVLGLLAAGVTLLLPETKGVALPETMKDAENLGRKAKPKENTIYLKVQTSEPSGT
Method: (§1) All experiments were carried out using transporter-overexpressing HEK293 cells. […] Cells were cultivated in Dulbecco’s Modified Eagle’s medium supplemented with 10% fetal calf serum, 100 U/ml penicillin, and 100 μg/ml streptomycin. Cells were passaged twice a week and kept in culture for no longer than 30 passages.
(§2) For uptake studies, 300,000 HEK293 cells were plated in each well of 24-well plates precoated with poly-D-lysine 48 prior to the experiment. On the day of the experiment, cells were washed once with prewarmed to 37 °C HBSS+ (Hank’s balanced salt solution supplemented with 10 mM Hepes, both Sigma-Aldrich). […] Uptake was stopped by adding ice-cold HBSS+ and cells were washed twice with ice-cold buffer before cell lysis was done using 80% acetonitrile containing an appropriate internal standard for eventual mass spectrometry. Relative quantification was done by comparison of transporter-overexpressing cells to empty vector–transfected controls. For uptake kinetic experiments, cells were incubated with increasing concentrations of substrate dissolved in HBSS+. Absolute quantification was done later by comparison to a standard curve in lysis buffer with known concentration.
(§3) Intracellular drug concentrations were detected and quantified by HPLC coupled to mass spectrometry. […] Substance-specific conditions were used to adjust the retention times of the analytes.
(§4) Transport ratios were determined as relative fold-increase of the uptake in transporter-overexpressing cells over empty vector–transfected control cells. For transport kinetic experiments, absolute substrate quantification was done by signal comparison to a standard curve with known concentrations. Net uptake was then determined by subtracting the uptake into empty vector–transfected cells from transporter-overexpressing cells. […] Vmax defines the maximum transport velocity, Km refers to the substrate concentration required to reach half vmax. The intrinsic clearance Clint is the ratio of vmax over Km.

[2] = biological target: T2, OCT1 WT (Homo sapiens, UniProt O15245); assay: Uptake screening (transport ratio over empty vector), HEK293 cells overexpressing OCT1 WT; assay type: cell-based; parameters: expressed in transfected cells;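 note: intracellular substrate levels quantified by HPLC–tandem mass spectrometry after uptake in HBSS+ buffer at 37 °C, stable Flp-In HEK293 lines, fold change versus empty vector–transfected cells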
T2 sequence (O15245 1-554): T1 sequence (O15245 1-554 F244A) with A244F
Method: as §1, §2, §3, §4

[3] = Phe244Ala uptake relative to OCT1 WT
[4] = uptake ratio over empty vector, HEK293 cells overexpressing OCT1 Phe244Ala
[5] = uptake ratio over empty vector, HEK293 cells overexpressing OCT1 WT
[6] = uptake ratio of OCT1 Phe244Ala-overexpressing HEK293 cells over empty vector
[7] = uptake ratio of OCT1 WT-overexpressing HEK293 cells over empty vector
[8] = Phe244Ala uptake relative to WT

CN[C@@H]1CCc2[nH]c3ccc(C(N)=O)cc3c2C1 [R-Frovatriptan]
relative_Phe244Ala_uptake_in% [1, 3]: 64.599% | Mean_transport_ratio_Phe244Ala [1, 4]: 10.8 | Mean_transport_ratio_WT [2, 5]: 16.171

COc1ccc(CC(C)(C)NC[C@H](O)c2cc(O)cc3c2OCC(=O)N3)cc1 [Olodaterol]
relative_Phe244Ala_uptake_in% [1, 3]: 139.279% | Mean_transport_ratio_Phe244Ala [1, 4]: 7.992 | Mean_transport_ratio_WT [2, 5]: 6.02

Cc1cc(C(C)(C)C)c(O)c(C)c1CC1=NCCN1 [Oxymetazoline]
relative_Phe244Ala_uptake_in% [1, 3]: 112.174% | Mean_transport_ratio_Phe244Ala [1, 4]: 8.896 | Mean_transport_ratio_WT [2, 5]: 8.039

CC(C)(C)NCC(O)c1ccc(O)c(CO)n1 (stereo not shown) [Pirbuterol]
relative_Phe244Ala_uptake_in% [1, 3]: 79.364% | Mean_transport_ratio_Phe244Ala [1, 4]: 54.212 | Mean_transport_ratio_WT [2, 5]: 68.047

CC(N)CCCC(C)(C)O (stereo not shown) [Heptaminol]
relative_Phe244Ala_uptake_in% [1, 3]: 20.840% | Mean_transport_ratio_Phe244Ala [1, 6]: 2.658 | Mean_transport_ratio_WT [2, 7]: 8.957

Nc1ccncc1N [Amifampridine]
relative_Phe244Ala_uptake_in% [1, 8]: 7.302% | Mean_transport_ratio_Phe244Ala [1, 4]: 1.269 | Mean_transport_ratio_WT [2, 5]: 4.689

CN(C)CCc1c[nH]c2ccc(C[C@H]3COC(=O)N3)cc12 [(S)-Zolmitriptan]
Mean_transport_ratio_Phe244Ala [1]: 8.091 | relative_Phe244Ala_uptake_in% [1]: 24.350% | Mean_transport_ratio_WT [2]: 30.121

CC(CCc1ccc(O)cc1)NCC(O)c1ccc(O)cc1 (stereo not shown) [Ractopamine]
relative_Phe244Ala_uptake_in% [1, 3]: 102.038% | Mean_transport_ratio_Phe244Ala [1, 4]: 7.041 | Mean_transport_ratio_WT [2, 5]: 6.92

CN(C)c1ccc(/C=C/c2cc[n+](C)cc2)cc1 [ASP^+, 4-(4-(dimethylamino)styryl)-N-methylpyridinium]
relative_Phe244Ala_uptake_in% [1, 8]: 62.977% | Mean_transport_ratio_Phe244Ala [1, 4]: 8.237 | Mean_transport_ratio_WT [2, 5]: 12.491

CN1CCN(CC(=O)N2c3ccccc3C(=O)Nc3cccnc32)CC1 [Pirenzipin]
relative_Phe244Ala_uptake_in% [1, 3]: 803.892% | Mean_transport_ratio_Phe244Ala [1, 4]: 8.32 | Mean_transport_ratio_WT [2, 5]: 1.911

C[N+]1(C)CCN(c2ccccc2)CC1 [Dimethylphenylpiperazinium]
relative_Phe244Ala_uptake_in% [1, 8]: 70.889% | Mean_transport_ratio_Phe244Ala [1, 4]: 24.939 | Mean_transport_ratio_WT [2, 5]: 34.77

COc1ccc2[nH]cc(CCN)c2c1 [5-Methoxytryptamine]
Mean_transport_ratio_Phe244Ala [1]: 1.602 | relative_Phe244Ala_uptake_in% [1]: 22.030% | Mean_transport_ratio_WT [2]: 3.73

Cc1cccc(C)c1OCC(C)N (stereo not shown) [Mexiletine]
relative_Phe244Ala_uptake_in% [1, 3]: 53.635%

N=C(N)NC(=O)Cc1c(Cl)cccc1Cl [Guanfacine]
relative_Phe244Ala_uptake_in% [1, 3]: 86.485% | Mean_transport_ratio_Phe244Ala [1, 6]: 2.966 | Mean_transport_ratio_WT [2, 7]: 3.273

CNCCc1ccc(O)cc1 [N-Methyl-p-tyramine]
relative_Phe244Ala_uptake_in% [1, 3]: 12.133% | Mean_transport_ratio_Phe244Ala [1, 6]: 1.688 | Mean_transport_ratio_WT [2, 7]: 6.673

Cc1cc(C(C)(C)C)cc(C)c1CC1=NCCN1 [Xylometazoline]
relative_Phe244Ala_uptake_in% [1, 3]: 242.447% | Mean_transport_ratio_Phe244Ala [1, 4]: 4.046 | Mean_transport_ratio_WT [2, 5]: 2.256

OC(c1ccccc1)(c1ccccc1)C12CC[N+](CCOCc3ccccc3)(CC1)CC2 [Umeclidinium]
relative_Phe244Ala_uptake_in% [1, 3]: 127.145% | Mean_transport_ratio_Phe244Ala [1, 4]: 7.391 | Mean_transport_ratio_WT [2, 5]: 6.027

CC(C)NCC(O)c1ccc(NS(C)(=O)=O)cc1 (stereo not shown) [Sotalol]
relative_Phe244Ala_uptake_in% [1, 3]: 43.617% | Mean_transport_ratio_Phe244Ala [1, 4]: 2.831 | Mean_transport_ratio_WT [2, 5]: 5.197

CCC1(c2cccc(O)c2)CCCCN(C)C1 (stereo not shown) [Meptazinol]
Mean_transport_ratio_Phe244Ala [1]: 1.571 | relative_Phe244Ala_uptake_in% [1]: 119.786% | Mean_transport_ratio_WT [2]: 1.477

CCC1(C2=NCCN2)Cc2ccccc2O1 (stereo not shown) [Efaroxan]
relative_Phe244Ala_uptake_in% [1, 8]: 45.757% | Mean_transport_ratio_Phe244Ala [1, 4]: 1.371 | Mean_transport_ratio_WT [2, 5]: 1.81

CC[N+](C)(CC)CCOC(=O)C(O)(c1ccccc1)C1CCCCC1 (stereo not shown) [Oxyphenonium]
relative_Phe244Ala_uptake_in% [1, 3]: 124.905% | Mean_transport_ratio_Phe244Ala [1, 4]: 40.516 | Mean_transport_ratio_WT [2, 5]: 32.636

CC(C)(C)NCC(O)COc1cccc2c1CC(O)C(O)C2 (stereo not shown) [Nadolol]
relative_Phe244Ala_uptake_in% [1, 3]: 142.415% | Mean_transport_ratio_Phe244Ala [1, 6]: 13.705 | Mean_transport_ratio_WT [2, 7]: 9.921

CN(C)CCc1c[nH]c2ccc(CS(=O)(=O)N3CCCC3)cc12 [Almotriptan]
relative_Phe244Ala_uptake_in% [1, 8]: 113.777% | Mean_transport_ratio_Phe244Ala [1, 4]: 4.279 | Mean_transport_ratio_WT [2, 5]: 3.882

COc1cc2c(cc1OC)[C@H](C)NCC2 [Salsolidine]
relative_Phe244Ala_uptake_in% [1, 3]: 32.677% | Mean_transport_ratio_Phe244Ala [1, 4]: 1.211 | Mean_transport_ratio_WT [2, 5]: 1.647

C[N+]12CCC(CC1)C(OC(=O)C(O)(c1ccccc1)c1ccccc1)C2 (stereo not shown) [Clidinium]
relative_Phe244Ala_uptake_in% [1, 8]: 112.238% | Mean_transport_ratio_Phe244Ala [1, 4]: 34.518 | Mean_transport_ratio_WT [2, 5]: 30.863

C[N@+]1(CC2CC2)CC[C@]23c4c5ccc(O)c4O[C@H]2C(=O)CC[C@@]3(O)[C@H]1C5 [Methylnaltrexone]
relative_Phe244Ala_uptake_in% [1, 3]: 139.178% | Mean_transport_ratio_Phe244Ala [1, 6]: 66.016 | Mean_transport_ratio_WT [2, 7]: 47.714

CNC(=C[N+](=O)[O-])NCCSCc1ccc(CN(C)C)o1 [Ranitidin]
relative_Phe244Ala_uptake_in% [1, 3]: 66.532% | Mean_transport_ratio_Phe244Ala [1, 4]: 11.729 | Mean_transport_ratio_WT [2, 5]: 17.125

CNS(=O)(=O)Cc1ccc2[nH]cc(CCN(C)C)c2c1 [Sumatriptan]
relative_Phe244Ala_uptake_in% [1, 3]: 115.380% | Mean_transport_ratio_Phe244Ala [1, 4]: 37.118 | Mean_transport_ratio_WT [2, 5]: 32.304

CCN[C@@H](C)Cc1cccc(C(F)(F)F)c1 [(S)-Fenfluramine]
Mean_transport_ratio_Phe244Ala [1]: 1.119 | relative_Phe244Ala_uptake_in% [1]: 183.841% | Mean_transport_ratio_WT [2]: 1.065

CCN(CC)CCNC(=O)c1ccc(NS(C)(=O)=O)cc1 [Sematilid]
relative_Phe244Ala_uptake_in% [1, 3]: 52.483% | Mean_transport_ratio_Phe244Ala [1, 4]: 2.352 | Mean_transport_ratio_WT [2, 5]: 3.577

CC(C)(C)NCC(O)c1ccc(O)c(CO)c1 (stereo not shown) [Salbutamol]
relative_Phe244Ala_uptake_in% [1, 3]: 142.307% | Mean_transport_ratio_Phe244Ala [1, 4]: 12.079 | Mean_transport_ratio_WT [2, 5]: 8.785

CN1[C@@H]2CC[C@H]1C[C@@H](OC(=O)c1c[nH]c3ccccc13)C2 [Tropisetron]
relative_Phe244Ala_uptake_in% [1, 3]: 47.074% | Mean_transport_ratio_Phe244Ala [1, 4]: 1.568 | Mean_transport_ratio_WT [2, 5]: 2.206
